From patent US6537545B1, “Use of corneal hardening agents in enzymeorthokeratology” (ISTA Pharmaceuticals, Inc., priority 1998, dated 2003)

Tests used:
Type in all cases: in vivo
[1] = system: Dutch Belted rabbit corneal epithelium; test: Corneal scraping, rate of re-epithelialization (Example 2); details: rabbits; scraping on Study Day 71 after 63 days of drops; examined 1, 2, 3 days post-scraping; vs BSS
Method: On Study Day 71 (following 63 days of drops), corneal scrapings were performed as follows. Photographs of the uninstrumented eyes were taken after fluorescein staining. Fluorescein staining was performed as described in Example 1. The examined animals were then placed under general anesthesia using ketamine/xylazine also as described in Example 1. Two (2) drops of proparacaine were instilled into both eyes of the examined animal as an anesthetic. The animal to be examined was then placed on an examination table with one eye gently proptosed. A 10×15 mm strip of epithelium from the central cornea was denuded with a sterile #11 scalpel blade (Feather Safety Razor Co., Ltd., Japan). The examined animal was then returned to the slit lamp, topical fluorescein was applied, and the eye was photographed. The animals were examined for reepithelialization at 1, 2, and 3 days post-scraping. Photographs were taken and the rate of re-epithelialization was determined and documented.

[2] = system: eyes of non-sighted human patients; test: Safety of non-enzymatic corneaplasty and topical 3% glyceraldehyde in five non-sighted human patients (Example 5); details: lenses 7 days, then 3% glyceraldehyde plus lenses 28 days, only minor incidents of SPK
Method: In this study five non-sighted patients with good corneas were treated with contact lenses and a 3% glyceraldehyde solution to determine the safety of this procedure. Here, the patients were fitted with and wore contact lenses for seven (7) days. Following this period a 3% glyceraldehyde solution (described above) was applied to the eyes and the contact lens wear continued for twenty-eight (28) days. After this period both the contact lens wear and the glyceraldehyde treatment ceased.
The patients were individually examined for the effects of the treatments following removal of the lenses and cessation of the glyceraldehyde treatment. The first examination was on the last day of treatment, and five (5) subsequent examinations were administered over a one month period.

[3] = system: eye of myopic human patient; test: Safety and efficacy of hyaluronidase and topical 3% glyceraldehyde solution, myopia in a human patient (Example 8); details: 50 IU hyaluronidase, lenses, 3% glyceraldehyde drops 15 days; monitored 196 days
Method: In this study, a single subject was selected to test the safety and efficacy of using hyaluronidase and a glyceraldehyde solution to treat sub-optimal visual acuity. In this study, the subject was first medically evaluated and a baseline was established. A medical history of the subject was taken and a detailed examination of the subject's eyes was also performed. The subject's eyes were tested to determine: refraction, cell count, intraocular pressure (IOP), pachymetry, corneal topography and corneal elasticity. A slit-lamp examination was also performed to establish the health of the eyes. Also, the presence of any general or ocular discomfort of the subject was noted.
Following the establishment of a baseline reading (UVA 20/300), the subject was administered a single intrastromal injection of 50 IU hyaluronidase prior to the orthokeratology treatment. Following 7 days of incubation of the subject's eyes with the injected material, the subject was fitted with corrective contact lenses for overnight wear. The subject wore the corrective lenses day and night for a period of seven (7) days. At this point the subject's visual acuity was 20/15. […] The visual acuity of the subject was then monitored for 196 days to determine the effect of the treatment on the unaided visual acuity of the subject;

[4] = system: eyes of myopic human subjects; test: Mild myopia study, group II: 500 IU hyaluronidase, corrective lenses, 3% glyceraldehyde (Example 9)
Description: Given the favorable results obtained in Example 8, an additional study was undertaken to test the safety and efficacy of the method of the present invention using a larger group of subjects. In this study, a group of subjects were selected and randomly separated into three test groups to test the safety and efficacy of using hyaluronidase and a glyceraldehyde solution for treating subjects with sub-optimal visual acuity. Groups one and two received an intrastromal injection of hyaluronidase (50 and 500 IU, respectively), while group three received a control injection of saline.
Following a two week incubation period after the injection, the three groups were fitted with corrective lenses to optimize the visual acuity of the subjects. The corrective lenses were left in place for a period of time sufficient to alter the shape of the subjects' eyes so as to achieve an optimal visual acuity. This period of time was generally 2 days in length. Once an acceptable visual acuity was achieved, the subjects in the three groups received a topical 3% glyceraldehyde solution in the form of ophthalmic drops four times per day while wearing the corrective lenses. The glyceraldehyde treatment was generally administered for one month. Lens wear occurred from 8 to 12 hours during the day.
At the end of the treatment period both the lens wear and the glyceraldehyde solution administration was terminated. The general health and visual acuity of the subjects was monitored from 3 to 5 months following treatment termination.
The subjects of group II were treated as those in group I in preparation for their participation in the study reported here. Before beginning the experimental protocol, test subjects were examined initially to establish a baseline from which the future results of the treatment were compared.
Following the establishment of a baseline reading, group II subjects were fitted with contact lenses and wore the corrective lenses at night for a period of two (2) to seven (7) days or until an acceptable visual acuity (approximately 20/20) was achieved. Group II test subjects received 500 IU of hyaluronidase by injection as compared to the 50 IU of group I. Two groups of subjects received 500 IU of hyaluronidase. The results obtained from the first group are shown in Table IIIA and the results from the second group are shown in Table IIIA and are identified in the table by the notation Gr. VI. There were no meaningful differences in the treatment protocols between these two groups. Subjects achieving an acceptable visual acuity received the topical 3% glyceraldehyde solution in the form of ophthalmic drops four times per day (08:00, 12:00, 16:00, and 20:00) for a period of 1 month in conjunction with daytime lens wear for stabilization. During this period, lens were occurred for approximately 8-12 hours per day and there was no nocturnal lens wear.
The subjects were examined periodically during the glyceraldehyde treatment to monitor changes in the health of the treated eyes.
At the end of the treatment period, the stabilizing lens were removed and the administration of the 3% glyceraldehyde solution was terminated. Following termination of the treatment, the subjects were examined immediately after treatment was terminated, once a week for the first four weeks after termination, and then monthly to measure changes in the visual acuity of the treated eyes. The health of the eye was also monitored. Sequelae characterized by the appearance or worsening of serious ocular symptoms or slit-lamp findings observed during these examinations were assessed. The proportions of subjects with such findings were analyzed.

O=CC(O)CO (stereo not drawn) [glyceraldehyde]
healing rate of scraped corneas (re-epithelialization) [1]: healed at a rate equivalent to those of the control | corneal findings in all patients [2]: Normal corneas | duration of correction of unaided visual acuity [3]: more than six months | UVA at follow-up after lens removal ([4]; Gr. VI subject 101, one month time point, baseline 20/200): 20/60 | UVA at follow-up after lens removal ([4]; Gr. VI subject 102, two month date, baseline 20/160): 20/20 | UVA at follow-up after lens removal ([4]; Gr. VI subject 103, two month date, baseline 20/160): 20/50 | UVA at follow-up after lens removal ([4]; Gr. VI subject 104, one month time point, baseline 20/200): 20/80 | UVA at follow-up after lens removal ([4]; Gr. VI subject 105, two month date, baseline 20/200): 20/80 | UVA at follow-up after lens removal ([4]; Gr. VI subject 106, two month date, baseline 20/160): 20/63 | UVA at follow-up after lens removal ([4]; Gr. VI subject 107, one month time point, baseline 20/60): 20/20 | overall effect on retention of orthokeratology benefits ([4]; combination of hyaluronidase (500 IU) and glyceraldehyde treatment): effective at retaining the benefits of orthokeratology | UVA at follow-up after lens removal ([4]; subject 00S/031, three month point, baseline 20/200): 20/50 | UVA at follow-up after lens removal ([4]; subject 004, four month point, baseline 20/160): 20/50 | UVA at follow-up after lens removal ([4]; subject 013, three month point, baseline 20/100): 20/40 | UVA at follow-up after lens removal ([4]; subject 017, three month point, baseline 20/50): 20/25 | UVA at follow-up after lens removal ([4]; subject 018, three month point, baseline 20/80): 20/25 | UVA at follow-up after lens removal ([4]; subject 019, three month point, baseline 20/70): 20/15 | UVA at follow-up after lens removal ([4]; subject 023, two months, baseline 20/70): 20/20 | UVA at follow-up after lens removal ([4]; subject 026, two months, baseline 20/50): 20/25 | UVA at follow-up after lens removal ([4]; subject 030, two months, baseline 20/300): 20/100 | UVA at follow-up after lens removal ([4]; subject P10/008, three month point, baseline 20/400): 20/80
